Results reported in publication PMC13081163, “Discovery of a novel Nrf2 activator that modulates mitochondrial function in neurons by regulating DHRS3-Nrf2 interaction after ischemic stroke” (Theranostics, 2026).
Where two headings read alike, the source gives them in different places.

Experiments:
[1] = design: method as in PMID 40455368; settings: 28-day, oral 10 mg/kg, rats; cited from earlier work
[2] = design: method as in PMID 37155124; settings: clinical; cited from earlier work
[3] = target: T1, Human recombinant Keap1 proteins (Homo sapiens, UniProt Q14145); experiment: SPR binding to full-length Keap1; design: purchased Sinobiological ME18DE0203; settings: read-out: KD of Oma (Keap1)
Procedure: The binding affinity of Cpd.51 or Oma to Keap1 proteins were measured using a Biacore T200. The overall experimental procedures were based on previous reports, [28]. Human recombinant Keap1 proteins or truncated form of Keap1 (residues 48-180 and residues 48-149) were captured on a CM5 chip by a standard amine coupling procedure. Binding sensorgrams were recorded by injecting various concentrations of Cpd.51 over the immobilized proteins surface. The dissociation constant was obtained by globally fitting the data (to the 1:1 Langmuir binding model using the Biacore Insight evaluation software (Cytiva, Marlborough, MA, USA). Affinity tests for Cpd.51 and DHRS3 were also performed using the aforementioned method.

SH-SY5Y cells [4] = experiment: Cytotoxicity in SH-SY5Y cells, 24 h incubation; assay type: cell-based; settings: Homo sapiens
[5] = cited from earlier work
[6] = tested on: ARE-luciferase reporter (Nrf2 activation), Hek-293T cells; experiment: ARE-luciferase reporter gene assay; assay type: cell-based; settings: Homo sapiens; Hek-293T cells, 12 h after drug treatment
Procedure: The Hek-293T cells were cultured in 96-well plates 24 h before transfection with ARE-luciferase reporter plasmid (11548ES03, Yeasen, China) for 48 h according to the manufacturer's instructions. The Firefly luciferase activities was carried out 12 h after the drug treatment, as described by the manufacturer (11412ES81, Yeasen, China).

[7] = 28-day long-term toxicity in rats (intragastric); assay type: in vivo, rat; settings: 28 days intragastric
Procedure: During the long-term toxicity test, rats in each group received daily intragastric administration for 28 consecutive days. Animals in the Sham group were administered a mixture of 99% sesame oil and 1% DMSO at a volume of 0.5 mL per rat. Rats in the remaining groups were intragastrically administered varying doses of the respective therapeutic agents.
During the 28-day long-term toxicity study, rats were euthanized following the completion of continuous intragastric administration. Livers and kidneys from both male and female rats in each group were photographed for macroscopic examination, and serum samples were collected for subsequent kit-based analysis. The liver/kidney index was obtained by dividing the weight of the liver/kidney by the body weight.

[8] = Acute (7-day i.v.) toxicity in rats; assay type: in vivo, rat; settings: 10 mg/kg i.v. daily for 7 days
Procedure: Cpd.51 was dissolved in solvent (10% DMSO, 10% Solutol HS-15 and 80% saline). It was injected (i.v.) at dose of 3 mg/kg or 5 mg/kg in a 0.5 mL volume. The Sham group and Vehicle group were treated simultaneously with an equal volume of solvent. In the experiment to explore the treatment time window, we merely administered the drug to the rats at different time points, while all other procedures remained unchanged. In the short-term toxicity study, 10 mg/kg Cpd.51 and Oma were administered via tail vein injection at 0.5 mL daily for 7 consecutive days.
Glutamic-pyruvic transaminase (GPT) kits (ml092635, mlbio, China), glutamic oxaloacetic transaminase (GOT) kits (ml092714, mlbio, China), creatinine (CRE) kits (M12C4L, mlbio, China) and blood urea nitrogen (BUN) kits (ml076479, China) were used to detect the serum of rats in order to evaluate liver and kidney functions. Male and female rats were randomly divided into Sham group, Cpd.51 group and Oma group. Doses were administered once daily at 10 mg/kg and body weights were recorded accordingly. Sham groups were given the same volume of solvent. After 7 days, the […] were sacrificed, serum was collected and tested according to the instructions.

tMCAO rats = experiment: Long-term recovery after tMCAO (survival, body weight, behaviour); assay type: in vivo, rat; settings: 5 mg/kg tail vein injection for 7 d
Procedure: To assess the degree of neurological impairment, we conducted modified Neurological Severity Score (mNSS) according to previous experience. The investigator was blinded to the grouping situation during the whole experiment.
On postoperative day 3 two wooden boards of identical size were joined at a 30° angle, with a narrow gap retained at the junction. The rat was positioned facing the apex of the angle. When it advanced into the deeper part of the angle, bilateral whisker contact with the boards triggered a characteristic rearing response, followed by a turn to face the opposite direction. Each rat underwent 15 trials, and the number of right turns was recorded. The higher the right-turn ratio, the more severe the injury.
Rats were placed on a horizontal, stainless steel wire grid. The grid was then smoothly rotated 180 degrees to an inverted position and held stationary at a height of 0.8 m. A stopwatch was started immediately upon inversion to measure the latency to fall. The test was terminated if the animal remained on the grid for 60 s, at which point it was gently returned to its home cage, and a score of 60 s was recorded.
The Y-maze apparatus consisted of three symmetrically arranged enclosed arms (typically labeled Arms A, B, and C), each positioned 120° apart. At the start of each trial, the subject was placed in Arm A and allowed to move freely through the maze for 8 min. Spatial working memory was evaluated by calculating the spontaneous alternation rate, using the following formula:
Following a 2 h acclimation period, the rats were within an open field cubic box (100 × 100 × 40 cm^3) and allowed 5 min of unrestricted movement. The travel distance and the time spent in the central area were recorded.
The spatial learning and memory of rats were assessed using the Morris water maze (MWM) from post-operative days 23 to 26. Over four consecutive days, animals underwent training trials in which they were required to locate a submerged escape platform within 60 s. Each rat was gently placed into the water facing the pool wall. If the rat found the platform and remained on it for 10 s, the escape latency was recorded. If the platform was not found within 60 s, the rat was guided onto it and allowed to stay for 10 s, and the latency was recorded as 60 s. Following the training phase, the platform was removed, and a visual spatial memory test lasting for 60 s was conducted to assess the retention of memory. The number of platform-location crossings and the time spent in the target quadrant were recorded and analyzed.

SH-SY5Y cells [9] = experiment: Protection against OGD/R damage in SH-SY5Y cells (CCK-8); assay type: cell-based, human
Procedure: To mimic ischemic conditions in vitro, cells were washed with PBS and then cultured for 2.5 h at 37 °C in glucose-free medium under anaerobic conditions (5% hydrogen, 90% nitrogen, and 5% carbon dioxide). OGD process was terminated by transferring cells back to normal glucose-containing medium under normoxic conditions (5% CO₂, 37 °C) and maintained for 24 h.
In the administration group, cells were exposed for 12 h with Cpd.51 prior to OGD. OGD lasted for 2.5 h and the reperfusion lasted for 24 h before the experiment was concluded. Subsequently, cell viability was determined using the cell counting kit-8 (CCK-8, C0039, Beyotime, China). In the experiment to explore the treatment time window, the only difference was the timing of the Cpd.51 treatment, while all other procedures remained unchanged.
Hek-293T cells were transiently transfected, using Lipofectamine™ 3000 and P3000™ reagent (L3000075, Invitrogen, USA) according to the manufacturer's instructions, with the wild-type, point-mutant and double-mutations constructs of Keap1, DHRS3 or Nrf2 (each at 0.5 ng/μL), respectively. Similarly, to promote the expression of the DHRS3 gene, a DHRS3 expression plasmids (0.5 ng/μL) was transfected as well as the corresponding negative controls into SH-SY5Y cells for 6 h, and further cultured with fresh medium for 18 h according to the manufacturer's instructions.

[10] = target: T1, Human recombinant Keap1 proteins; settings: cited from earlier work
[11] = Oma 10 mg/kg, Cpd.51 1, 3 and 10 mg/kg

T1 sequence (Q14145 whole entry, the tested form may be a part): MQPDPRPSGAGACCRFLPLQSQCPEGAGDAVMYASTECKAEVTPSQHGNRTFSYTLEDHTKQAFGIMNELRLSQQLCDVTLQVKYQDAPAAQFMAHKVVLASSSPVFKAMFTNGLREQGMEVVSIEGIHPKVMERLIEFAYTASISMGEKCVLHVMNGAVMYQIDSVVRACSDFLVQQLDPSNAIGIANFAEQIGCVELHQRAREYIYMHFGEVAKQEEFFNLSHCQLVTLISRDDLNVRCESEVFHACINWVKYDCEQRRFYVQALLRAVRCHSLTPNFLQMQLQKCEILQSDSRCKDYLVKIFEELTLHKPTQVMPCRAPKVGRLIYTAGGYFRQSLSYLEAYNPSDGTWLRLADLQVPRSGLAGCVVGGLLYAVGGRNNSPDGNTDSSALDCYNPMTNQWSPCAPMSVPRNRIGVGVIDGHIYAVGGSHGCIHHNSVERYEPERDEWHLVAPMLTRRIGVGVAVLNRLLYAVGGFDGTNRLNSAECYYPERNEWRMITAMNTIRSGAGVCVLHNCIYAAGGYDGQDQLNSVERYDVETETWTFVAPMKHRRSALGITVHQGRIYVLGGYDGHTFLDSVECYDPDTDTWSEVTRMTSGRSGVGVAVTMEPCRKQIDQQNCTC
Nrf2, sequence (Q16236 whole entry): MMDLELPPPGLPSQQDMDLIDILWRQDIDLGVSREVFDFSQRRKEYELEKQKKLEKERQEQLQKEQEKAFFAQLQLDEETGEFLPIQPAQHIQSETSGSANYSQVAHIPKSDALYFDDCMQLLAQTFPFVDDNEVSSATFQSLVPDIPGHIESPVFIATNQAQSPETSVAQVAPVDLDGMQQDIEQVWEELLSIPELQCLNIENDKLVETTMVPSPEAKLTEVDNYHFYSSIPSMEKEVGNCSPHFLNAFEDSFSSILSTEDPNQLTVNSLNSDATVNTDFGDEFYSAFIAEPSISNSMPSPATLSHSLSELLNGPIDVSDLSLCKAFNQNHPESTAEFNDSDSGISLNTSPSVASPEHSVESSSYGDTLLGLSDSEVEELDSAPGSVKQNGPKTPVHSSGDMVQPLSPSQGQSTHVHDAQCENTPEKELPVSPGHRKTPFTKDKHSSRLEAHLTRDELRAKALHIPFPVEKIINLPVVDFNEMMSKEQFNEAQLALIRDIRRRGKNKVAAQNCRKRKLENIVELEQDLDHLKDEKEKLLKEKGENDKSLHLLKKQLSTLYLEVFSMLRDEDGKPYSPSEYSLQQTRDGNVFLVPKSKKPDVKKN

Molecule | hepatotoxicity (liver weight, plasma ALT) [1] | apparent volume of distribution (Vd) [2] | terminal half-life (T1/2) [2] | Kd [3] | IC50 (SH-SY5Y cells [4]) | patients developing liver injury during clinical trials [5] | EC50 [6] | liver and kidney indices ([7]; 10 mg/kg, female and male rats) | body weight [7, 11] | plasma markers of hepatic and renal injury [7, 11] | liver hypertrophy, serum GPT and GOT [8] | serum CRE and BUN [8] | weight gain [8] | body weight and mNSS scores, long-term (tMCAO rats) | corner, inverted screen, Y maze and open field tests (tMCAO rats; vs model group) | OGD/R damage when administered at different time points (SH-SY5Y cells [9]; 100 nM, CCK-8) | EC50 (SH-SY5Y cells [9]; Homo sapiens, SH-SY5Y, read-out: EC50 against OGD/R damage) | Kd [10]
CC1(C)CC[C@]2(NC(=O)C(C)(F)F)CC[C@]3(C)[C@H](C(=O)C=C4[C@@]5(C)C=C(C#N)C(=O)C(C)(C)[C@@H]5CC[C@]43C)[C@@H]2C1 [Oma, Omaveloxolone, reference compound] | induced hepatotoxicity | ~105 L/kg | ~57 h | 21.7 nM | 758 nM | ~ 37% | 104 nM | markedly increased the liver and kidney indices | neither compound significantly affected body weight | significantly elevated plasma markers of hepatic and renal injury | marked liver hypertrophy and elevated serum levels of glutamic-pyruvic transaminase (GPT) and glutamic oxaloacetic transaminase (GOT) | increased serum creatinine (CRE) and blood urea nitrogen (BUN) levels | suppressed weight gain | significantly improved body weight and mNSS scores | exhibited improvements in neurological deficits, motor abilities, and spatial working and reference memory | consistently alleviated OGD/R damage | 80.8 nM | –
Nrf2 (from UniProt Q16236) | – | – | – | – | – | – | – | – | – | – | – | – | – | – | – | – | – | 19 nM
